# Assay results as given in patent publication US20100099561A1, “HETEROBICYCLIC ALKYLTHIO-BRIDGED ISOXAZOLINES” (E.I. DU PONT DE NEMOURS AND COMPANY, priority 2008, published 2010).
# Assays:
# Type in all cases: in vivo
# Conditions in all cases: 21 days, scale 0 to 100
# [1] = test system: canarygrass (Phalaris minor); assay: Test C preemergence, canarygrass
# Excerpt: (§1) Seeds of plant species selected from annual bluegrass (Poa annua), blackgrass (Alopecurus myosuroides), canarygrass (Phalaris minor), gallium, (catchweed bedstraw, Galium aparine), chickweed (Stellaria media), downy bromegrass (Bromus tectorum), field poppy (Papaver rhoeas), field violet (Viola arvensis), green foxtail (Setaria viridis), deadnettle (henbit deadnettle, Lamium amplexicaule), Italian ryegrass (Lolium multiflorum), kochia (Kochia scoparia), lambsquarters (Chenopodium album), oilseed rape (Brassica napus), pigweed (Amaranthus retroflexus), Russian thistle (Salsola kali), spring barley (Hordeum vulgare), spring wheat (Triticum aestivum), wild buckwheat (Polygonum convolvulus), wild mustard (Sinapis arvensis), wild oat (Avena fatua), wild radish (Raphanus raphanistrum), windgrass (Apera spica-venti), winter barley (Hordeum vulgare), and winter wheat (Triticum aestivum) were planted and treated preemergence with test chemicals formulated in a non-phytotoxic solvent mixture which included a surfactant.
# (§2) Treated plants and controls were maintained in a controlled growth environment for 21 days after which time all species were compared to controls and visually evaluated. Plant response ratings, summarized in Table C, are based on a scale of 0 to 100 where 0 is no effect and 100 is complete control. A dash (-) response means no test result.
# [2] = test system: oilseed rape (Brassica napus); assay: Test C preemergence, oilseed rape
# Excerpt: as §1, §2
# [3] = test system: spring barley (Hordeum vulgare); assay: Test C preemergence, spring barley
# Excerpt: as §1, §2
# [4] = test system: annual bluegrass (Poa annua); assay: Test C preemergence, annual bluegrass
# Excerpt: as §1, §2
# [5] = test system: wild buckwheat (Polygonum convolvulus); assay: Test C preemergence, wild buckwheat
# Excerpt: as §1, §2
# [6] = test system: deadnettle (henbit deadnettle, Lamium amplexicaule); assay: Test C preemergence, deadnettle
# Excerpt: as §1, §2
# [7] = test system: spring wheat (Triticum aestivum); assay: Test C preemergence, spring wheat
# Excerpt: as §1, §2
# [8] = test system: green foxtail (Setaria viridis); assay: Test C preemergence, green foxtail
# Excerpt: as §1, §2
# [9] = test system: chickweed (Stellaria media); assay: Test C preemergence, chickweed
# Excerpt: as §1, §2
# wild oat (Avena fatua) = assay: Test C preemergence, wild oat
# Excerpt: as §1, §2
# kochia (Kochia scoparia) = assay: Test C preemergence, kochia
# Excerpt: as §1, §2
# [10] = test system: field poppy (Papaver rhoeas); assay: Test C preemergence, field poppy
# Excerpt: as §1, §2
# [11] = test system: winter barley (Hordeum vulgare); assay: Test C preemergence, winter barley
# Excerpt: as §1, §2
# [12] = test system: field violet (Viola arvensis); assay: Test C preemergence, field violet
# Excerpt: as §1, §2
# [13] = test system: gallium, (catchweed bedstraw, Galium aparine); assay: Test C preemergence, galium
# Excerpt: as §1, §2
# [14] = test system: windgrass (Apera spica-venti); assay: Test C preemergence, windgrass
# Excerpt: as §1, §2
# [15] = test system: Russian thistle (Salsola kali); assay: Test C preemergence, Russian thistle
# Excerpt: as §1, §2
# [16] = test system: lambsquarters (Chenopodium album); assay: Test C preemergence, lambsquarters
# Excerpt: as §1, §2
# [17] = test system: downy bromegrass (Bromus tectorum); assay: Test C preemergence, downy bromegrass
# Excerpt: as §1, §2
smiles,measurement,setting,value
"CC1(C)CC(S(=O)(=O)Cc2c(C(F)(F)F)nc3n(c2=O)CCCC3)=NO1 [Compound 8, 3-[[(4,5-dihydro-5,5-dimethyl-3-isoxazolyl)sulfonyl]methyl]-6,7,8,9-tetrahydro-2-(trifluoromethyl)-4H-pyrido[1,2-α]pyrimidin-4-one]","Plant response rating, Canarygrass",[1]; 16 g ai/ha,0
same,"Plant response rating, Canarygrass",[1]; 31 g ai/ha,0
same,"Plant response rating, Canarygrass",[1]; 62 g ai/ha,0
same,"Plant response rating, Canarygrass",[1]; 125 g ai/ha,20
same,"Plant response rating, Oilseed Rape",[2]; 16 g ai/ha,0
same,"Plant response rating, Oilseed Rape",[2]; 31 g ai/ha,0
same,"Plant response rating, Oilseed Rape",[2]; 62 g ai/ha,0
same,"Plant response rating, Oilseed Rape",[2]; 125 g ai/ha,0
same,"Plant response rating, Barley, Spring",[3]; 16 g ai/ha,0
same,"Plant response rating, Barley, Spring",[3]; 31 g ai/ha,0
same,"Plant response rating, Barley, Spring",[3]; 62 g ai/ha,0
same,"Plant response rating, Barley, Spring",[3]; 125 g ai/ha,0
same,"Plant response rating, Bluegrass",[4]; 16 g ai/ha,0
same,"Plant response rating, Bluegrass",[4]; 31 g ai/ha,0
same,"Plant response rating, Bluegrass",[4]; 62 g ai/ha,0
same,"Plant response rating, Bluegrass",[4]; 125 g ai/ha,0
same,"Plant response rating, Buckwheat, Wild",[5]; 16 g ai/ha,0
same,"Plant response rating, Buckwheat, Wild",[5]; 31 g ai/ha,0
same,"Plant response rating, Buckwheat, Wild",[5]; 62 g ai/ha,0
same,"Plant response rating, Deadnettle",[6]; 16 g ai/ha,0
same,"Plant response rating, Deadnettle",[6]; 31 g ai/ha,0
same,"Plant response rating, Deadnettle",[6]; 62 g ai/ha,0
same,"Plant response rating, Deadnettle",[6]; 125 g ai/ha,0
same,"Plant response rating, Wheat, Spring",[7]; 16 g ai/ha,0
same,"Plant response rating, Wheat, Spring",[7]; 31 g ai/ha,0
same,"Plant response rating, Wheat, Spring",[7]; 62 g ai/ha,0
same,"Plant response rating, Wheat, Spring",[7]; 125 g ai/ha,0
same,"Plant response rating, Foxtail, Green",[8]; 16 g ai/ha,0
same,"Plant response rating, Foxtail, Green",[8]; 31 g ai/ha,0
same,"Plant response rating, Foxtail, Green",[8]; 62 g ai/ha,15
same,"Plant response rating, Foxtail, Green",[8]; 125 g ai/ha,60
same,"Plant response rating, Chickweed",[9]; 16 g ai/ha,0
same,"Plant response rating, Chickweed",[9]; 31 g ai/ha,0
same,"Plant response rating, Chickweed",[9]; 62 g ai/ha,0
same,"Plant response rating, Chickweed",[9]; 125 g ai/ha,40
same,"Plant response rating, Oat, Wild",wild oat (Avena fatua); 16 g ai/ha,0
same,"Plant response rating, Oat, Wild",wild oat (Avena fatua); 31 g ai/ha,0
same,"Plant response rating, Oat, Wild",wild oat (Avena fatua); 62 g ai/ha,0
same,"Plant response rating, Oat, Wild",wild oat (Avena fatua); 125 g ai/ha,0
same,"Plant response rating, Kochia",kochia (Kochia scoparia); 16 g ai/ha,0
same,"Plant response rating, Kochia",kochia (Kochia scoparia); 31 g ai/ha,0
same,"Plant response rating, Kochia",kochia (Kochia scoparia); 62 g ai/ha,0
same,"Plant response rating, Kochia",kochia (Kochia scoparia); 125 g ai/ha,0
same,"Plant response rating, Field Poppy",[10]; 16 g ai/ha,0
same,"Plant response rating, Field Poppy",[10]; 31 g ai/ha,0
same,"Plant response rating, Field Poppy",[10]; 62 g ai/ha,50
same,"Plant response rating, Field Poppy",[10]; 125 g ai/ha,75
same,"Plant response rating, Barley, Winter",[11]; 16 g ai/ha,0
same,"Plant response rating, Barley, Winter",[11]; 31 g ai/ha,0
same,"Plant response rating, Barley, Winter",[11]; 62 g ai/ha,0
same,"Plant response rating, Barley, Winter",[11]; 125 g ai/ha,0
same,"Plant response rating, Field Violet",[12]; 16 g ai/ha,0
same,"Plant response rating, Field Violet",[12]; 31 g ai/ha,0
same,"Plant response rating, Field Violet",[12]; 62 g ai/ha,0
same,"Plant response rating, Field Violet",[12]; 125 g ai/ha,90
same,"Plant response rating, Galium",[13]; 16 g ai/ha,0
same,"Plant response rating, Galium",[13]; 31 g ai/ha,0
same,"Plant response rating, Galium",[13]; 62 g ai/ha,0
same,"Plant response rating, Galium",[13]; 125 g ai/ha,0
same,"Plant response rating, Windgrass",[14]; 16 g ai/ha,0
same,"Plant response rating, Windgrass",[14]; 31 g ai/ha,0
same,"Plant response rating, Windgrass",[14]; 62 g ai/ha,35
same,"Plant response rating, Windgrass",[14]; 125 g ai/ha,90
same,"Plant response rating, Russian Thistle",[15]; 16 g ai/ha,0
same,"Plant response rating, Russian Thistle",[15]; 31 g ai/ha,0
same,"Plant response rating, Russian Thistle",[15]; 62 g ai/ha,0
same,"Plant response rating, Russian Thistle",[15]; 125 g ai/ha,0
same,"Plant response rating, Lambsquarters",[16]; 16 g ai/ha,0
same,"Plant response rating, Lambsquarters",[16]; 31 g ai/ha,0
same,"Plant response rating, Lambsquarters",[16]; 62 g ai/ha,0
same,"Plant response rating, Lambsquarters",[16]; 125 g ai/ha,0
same,"Plant response rating, Bromegrass, Downy",[17]; 16 g ai/ha,0
same,"Plant response rating, Bromegrass, Downy",[17]; 31 g ai/ha,0
same,"Plant response rating, Bromegrass, Downy",[17]; 62 g ai/ha,0
same,"Plant response rating, Bromegrass, Downy",[17]; 125 g ai/ha,0
